Test [1] deals with ABCB1 (P-glycoprotein, MDR1) (Homo sapiens, UniProt P08183). Put plainly: vanadate-sensitive ATPase assay, crude membranes of High Five cells. Type of test: biochemical.
The next test concerns the target T1, ABCC10 (MRP7) (Homo sapiens, UniProt Q5T3U5).
T1 sequence (Q5T3U5 1-1492): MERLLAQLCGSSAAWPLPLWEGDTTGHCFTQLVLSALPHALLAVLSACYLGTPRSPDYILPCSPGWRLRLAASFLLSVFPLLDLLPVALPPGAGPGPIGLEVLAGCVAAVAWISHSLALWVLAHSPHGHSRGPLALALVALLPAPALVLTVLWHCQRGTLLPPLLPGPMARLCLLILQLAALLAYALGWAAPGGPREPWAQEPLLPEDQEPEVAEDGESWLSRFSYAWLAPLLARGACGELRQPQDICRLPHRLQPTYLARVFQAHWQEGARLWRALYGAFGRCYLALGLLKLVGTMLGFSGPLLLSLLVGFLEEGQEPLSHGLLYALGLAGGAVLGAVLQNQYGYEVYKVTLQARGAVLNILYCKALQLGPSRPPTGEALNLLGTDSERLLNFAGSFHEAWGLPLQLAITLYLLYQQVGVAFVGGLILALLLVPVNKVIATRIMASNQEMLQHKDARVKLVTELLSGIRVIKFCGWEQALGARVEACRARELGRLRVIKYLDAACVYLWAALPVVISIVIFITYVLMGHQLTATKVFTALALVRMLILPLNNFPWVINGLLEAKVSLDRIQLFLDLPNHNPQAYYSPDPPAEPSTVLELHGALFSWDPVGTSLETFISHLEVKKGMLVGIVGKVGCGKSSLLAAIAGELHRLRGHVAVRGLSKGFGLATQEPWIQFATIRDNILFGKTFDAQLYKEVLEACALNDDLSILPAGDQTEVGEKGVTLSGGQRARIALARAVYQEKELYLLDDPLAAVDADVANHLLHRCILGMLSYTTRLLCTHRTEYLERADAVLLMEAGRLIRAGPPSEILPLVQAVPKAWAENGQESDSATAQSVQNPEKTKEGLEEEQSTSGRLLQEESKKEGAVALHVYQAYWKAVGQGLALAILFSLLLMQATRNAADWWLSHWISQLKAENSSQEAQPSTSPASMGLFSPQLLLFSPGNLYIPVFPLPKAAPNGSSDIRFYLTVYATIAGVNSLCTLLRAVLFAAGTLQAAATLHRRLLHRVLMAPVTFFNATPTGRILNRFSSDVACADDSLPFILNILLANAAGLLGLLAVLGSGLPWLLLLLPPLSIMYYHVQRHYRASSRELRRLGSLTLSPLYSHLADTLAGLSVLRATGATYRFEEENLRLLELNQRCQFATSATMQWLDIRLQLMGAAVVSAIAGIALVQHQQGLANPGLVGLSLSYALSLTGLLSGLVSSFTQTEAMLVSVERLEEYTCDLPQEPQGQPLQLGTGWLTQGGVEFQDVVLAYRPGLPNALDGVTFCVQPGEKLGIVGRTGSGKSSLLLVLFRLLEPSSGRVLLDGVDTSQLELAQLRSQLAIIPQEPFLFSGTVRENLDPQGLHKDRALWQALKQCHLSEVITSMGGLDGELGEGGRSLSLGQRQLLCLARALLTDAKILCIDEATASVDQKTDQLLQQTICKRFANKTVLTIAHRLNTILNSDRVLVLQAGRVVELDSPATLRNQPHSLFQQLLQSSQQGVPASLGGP
Put plainly: [3H]-paclitaxel efflux, HEK293/ABCC10 versus HEK293/pcDNA3.[…] cells. The settings on record: labelled compound; 0.1 μmol/L; 37°C. The test is classed as cell-based.

The structures appear in SMILES notation.

Chain of ABCB1 (P-glycoprotein, MDR1) (P08183 whole entry): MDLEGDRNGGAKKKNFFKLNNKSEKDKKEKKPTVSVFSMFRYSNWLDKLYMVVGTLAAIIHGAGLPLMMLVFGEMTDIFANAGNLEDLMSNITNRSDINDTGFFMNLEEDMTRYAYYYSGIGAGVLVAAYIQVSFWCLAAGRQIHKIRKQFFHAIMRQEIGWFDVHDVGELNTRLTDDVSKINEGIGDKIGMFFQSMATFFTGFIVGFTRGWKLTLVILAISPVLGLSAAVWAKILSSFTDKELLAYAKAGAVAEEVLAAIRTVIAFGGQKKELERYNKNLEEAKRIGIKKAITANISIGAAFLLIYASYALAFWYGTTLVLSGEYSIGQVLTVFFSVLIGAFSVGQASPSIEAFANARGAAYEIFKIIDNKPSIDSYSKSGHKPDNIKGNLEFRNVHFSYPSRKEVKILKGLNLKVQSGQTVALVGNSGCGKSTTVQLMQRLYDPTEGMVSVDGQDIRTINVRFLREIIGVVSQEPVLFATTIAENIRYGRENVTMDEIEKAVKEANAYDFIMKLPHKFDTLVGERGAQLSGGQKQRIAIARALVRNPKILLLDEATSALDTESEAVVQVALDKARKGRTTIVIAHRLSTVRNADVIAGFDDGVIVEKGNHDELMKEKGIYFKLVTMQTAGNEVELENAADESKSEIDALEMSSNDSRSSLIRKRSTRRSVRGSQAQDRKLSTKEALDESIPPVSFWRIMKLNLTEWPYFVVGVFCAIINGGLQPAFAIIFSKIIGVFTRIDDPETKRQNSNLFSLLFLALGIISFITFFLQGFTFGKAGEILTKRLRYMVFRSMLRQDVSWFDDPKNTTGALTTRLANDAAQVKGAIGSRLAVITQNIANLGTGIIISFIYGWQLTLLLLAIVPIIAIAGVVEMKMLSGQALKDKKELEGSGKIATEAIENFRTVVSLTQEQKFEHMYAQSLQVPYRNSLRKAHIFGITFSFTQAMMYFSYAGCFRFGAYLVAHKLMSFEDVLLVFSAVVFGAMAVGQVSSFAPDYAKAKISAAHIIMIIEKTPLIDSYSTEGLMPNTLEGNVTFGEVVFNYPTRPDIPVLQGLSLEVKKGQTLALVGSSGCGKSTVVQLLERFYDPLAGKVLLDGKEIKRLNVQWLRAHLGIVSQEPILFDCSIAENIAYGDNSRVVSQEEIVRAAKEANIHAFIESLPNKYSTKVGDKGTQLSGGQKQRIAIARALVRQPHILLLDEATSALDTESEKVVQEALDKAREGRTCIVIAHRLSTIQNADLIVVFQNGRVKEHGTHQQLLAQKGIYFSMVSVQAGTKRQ

`C=CC(=O)N1CCC[C@@H](n2nc(-c3ccc(Oc4ccccc4)cc3)c3c(N)ncnc32)C1` [ibrutinib] had an EC50 in test [1] of 641 nM. As to `CC(=O)O[C@H]1C(=O)[C@@]2(C)[C@H]([C@H](OC(=O)c3ccccc3)[C@]3(O)C[C@H](OC(=O)[C@H](O)[C@@H](NC(=O)c4ccccc4)c4ccccc4)C(C)=C1C3(C)C)[C@]1(OC(C)=O)CO[C@@H]1C[C@@H]2O` [paclitaxel], the “[3H]-paclitaxel efflux, HEK293/ABCC10 versus HEK293/pcDNA3.1 cells” value on ABCC10 (MRP7) is “KB-C2 and HEK293/ABCC10 cells efflux more [^3H]-paclitaxel out of the cells”.

For orientation: EC50 means the concentration at which the effect is half-maximal. Higher therefore signals a need for much substance.

The values are drawn from publication PMC7830771 (Molecular cancer therapeutics, 2017).
